Like-named read-outs stand apart in the source and are kept apart here.
Columns and labels:
[1] = system: human intestinal L-cells (NCI-H716); assay: GLP-1 secretion in human intestinal L-cells (NCI-H716); assay type: cell-based; conditions: for GLP-1 secretion in vitro: NCI-H716 L-cells, 2 hours; for GLP-1 secretion in vitro by CA7S extracted from cecal contents of SG mice: material extracted from mouse cecum
[2] = CA7S concentration in tissues and blood after enteral CA7S (UPLC-MS bile acid analysis)
DIO mice [3] = assay: CA7S gavage and OGTT after lentiviral shRNA knockdown of GLP-1R; assay type: in vivo, mouse; conditions: GLP-1R shRNA knockdown, gavage 100 mg/kg, vs PBS
Description: (§1) Age matched, […] mice were kept on HFD and their blood glucose levels were monitored until average fasting glucose levels were >160 mg/dL. Animals were fasted for 4 hours on the day of the experiment. […] Three hours later, an OGTT was performed using an oral gavage of 2 mg/g oral D-glucose (Sigma-Aldrich, St. Louis, Mo.). Blood glucose levels were measured at baseline and at minutes 15, 30, 60 and 120 with a OneTouch glucometer.

Caco-2 cells = assay: Cell viability assay in Caco-2 cells; assay type: cell-based, human; conditions: overnight incubation
Description: Cell viability assay. […] The concentration of DMSO was kept constant and used as a negative control. […] Cell viability was measured in Countess II automated cell counter (Invitrogen). Percentage relative viability was calculated compared to DMSO control.

NCI-H716 cells = assay: Calcium measurement in NCI-H716 cells; assay type: cell-based, human
Description: The cells were allowed to grow for 2 days in complete RPMI media. […] The concentration of DMSO was kept constant throughout the treatments and used as a negative control. Cells were incubated at 37° C. in an atmosphere of 5% CO2 for 2 hours. […] Cells on cell culture plates were placed on ice and gently washed with PBS (GenClone).

DIO mice [4] = assay: In vivo CA7S gavage and oral glucose tolerance test (OGTT); set-up: species or system mouse; conditions: gavage 100 mg/kg, vs vehicle
Description: as §1

[5] = In vivo CA7S oral gavage: CA7S concentration in tissues and blood
Description: Extraction. Cecal, liver, and human fecal samples (approximately 50 mg each) and mouse portal veins were pre-weighed in lysis tubes containing ceramic beads (Precellys lysing kit tough micro-organism lysing VK05 tubes for cecal, fecal samples, and portal veins; tissue homogenizing CIKMix tubes for liver samples; Bertin technologies, Montigny-le-Bretonneux, France). 400p L of methanol containing 10 μM internal standard (GCA) was added and the tubes were homogenized in a MagNA Lyser (6000 speed for 90 s*2, 7000 speed for 60 s). 50 μl of mouse serum was collected in Eppendorf tubes, followed by addition of 50 μL of methanol containing 10 μM internal standard (GCA). After vortexing for 1 min, the sample was cooled to −20° C. for 20 min. All methanol-extracted tissue samples were centrifuged at 4° C. for 30 min at 15,000 rpm. […]
UPLC-MS. […] Samples were analyzed using an Agilent Technologies 12990 Infinity 11 UPLC system coupled online to an Agilent Technologies 6120 Quadrupole LC/MS spectrometer in negative electrospray mode with a scan range of 350-550 m/z (MSD settings: fragmentor—250, gain—3.00, threshold—150, Step size—0.10, speed (u/sec)—743). […] For quantification of the analytes, standard curves were obtained using known bile acids, and then each analyte was quantified based on the standard curve and normalized based on the internal standard. […]

pH stability test = assay type: physicochemical; conditions: pH 1, 7.4 and 9, overnight at 37° C.
Description: pH stability test. […] Briefly, buffers of pH 1 (0.1 M HCl), pH 7.4 (PBS) and pH 9 (a 10 mM solution of ammonium formate adjusted to pH 9 with ammonium hydroxide) (all from Sigma) were prepared.

DIO mice [6] = assay: In vivo CA7S oral gavage: systemic GLP-1; set-up: species or system mouse; conditions: oral gavage 100 mg/kg, 5 hours post-treatment, vs PBS
DIO mice [7] = assay: In vivo enteral (duodenal and rectal) treatment of DIO mice: glucose, GLP-1, insulin, TGR5 expression; set-up: species or system mouse; conditions: for Systemic GLP-1 levels: within 15 min
[8] = listed as Cholic acid-7-sulfate

C[C@H](CCC(=O)O)[C@H]1CC[C@H]2[C@@H]3[C@H](O)C[C@@H]4C[C@H](O)CC[C@]4(C)[C@H]3C[C@H](O)[C@]12C [CA, cholic acid, reference compound]
GLP-1 secretion in vitro [1]: had no effect on GLP-1 secretion | GLP-1 secretion in vitro ([1]; listed as cholic acid): had no effect

C[C@H](CCC(=O)O)[C@H]1CC[C@H]2[C@@H]3[C@H](OS(=O)(=O)O)C[C@@H]4C[C@H](O)CC[C@]4(C)[C@H]3C[C@H](O)[C@]12C [CA7S, cholic acid-7-sulfate]
CA7S concentration (mean ± SEM), cecum ([2]; DIO mice, enteral CA7S): 2577 ± 185 pmol/mg | CA7S concentration (mean ± SEM), portal vein ([2]; DIO mice, enteral CA7S): 6.13 ± 2.11 pmol/mg | CA7S concentration (mean ± SEM), systemic blood ([2]; DIO mice, enteral CA7S): 0.5 ± 0.2 pmol/µL | CA7S in cecal contents (average) ([2]; administration of 1 mg via duodenal and rectal catheters): 2500 pmol/mg wet mass | cholic acid-7-sulfate in the cecum ([2]; dosing with 1 mg): ~2500 µM | Leak into systemic circulation and portal vein ([2]; ectopic (enteral) introduction): only minor amounts to leak into systemic circulation and in the portal vein | Glycemic curves and AUCs in OGTT in the absence of GLP-1R (DIO mice [3]): no significant differences in the glycemic curves or AUCs | Toxicity in intestinal Caco cells (Caco-2 cells): no toxicity | Calcium levels in L-cells (NCI-H716 cells): dose-dependent increase in calcium levels | Calcium levels in L-cells (NCI-H716 cells; [8]): increased calcium levels | Total and incremental areas under the glucose versus time curves (AUC and iAUC) (DIO mice [4]): significantly decreased | CA7S concentration (mean ± SEM), portal vein ([5]; DIO mice, CA7S gavage 100 mg/kg, 5 hours): 13.2 ± 7.7 pmol/µL | CA7S accumulation in cecal contents (mean value) ([5]; oral gavage 100 mg/kg, 5 hours post-gavage): 15,000 picomol/mg wet mass | GLP-1 secretion after siRNA-mediated knockdown of TGR5 [1]: abolished GLP-1 secretion | GLP-1 secretion in vitro [1]: to a similar degree as TDCA in a dose-dependent manner | GLP-1 secretion in vitro [1, 8]: induces GLP-1 secretion in vitro better than the known GLP-1 inducer TDCA | GLP-1 secretion in vitro by CA7S extracted from cecal contents of SG mice [1]: also induced GLP-1 secretion in vitro | GLP-1 secretion in vitro by CA7S extracted from cecal contents of SG mice ([1]; listed as cholic acid-7-sulfate): exhibit activity inducing GLP-1 secretion in vitro | Stability at different pHs (pH stability test): stable in a wide range of pHs | Systemic levels of GLP-1 (DIO mice [6]): increased | Insulin levels (DIO mice [7]; DIO mice, enteral, vs PBS): increased insulin levels | TGR5 expression in colon and terminal ileum (DIO mice [7]; DIO mice, enteral CA7S): increased in the colon, but not the terminal ileum | Blood glucose levels (DIO mice [7]; HFD-fed DIO mice, enteral 1 mg, 15 min, vs PBS): reduced blood glucose levels | Systemic GLP-1 levels (DIO mice [7]; HFD-fed DIO mice, enteral 1 mg, vs PBS): increased systemic GLP-1 levels | Systemic GLP-1 levels (DIO mice [7]; HFD-fed DIO mice, enteral 1 mg, vs PBS, listed as cholic acid-7-sulfate): induced GLP-1 levels

C[C@H](CCC(=O)NCCS(=O)(=O)O)[C@H]1CC[C@H]2[C@@H]3CC[C@@H]4C[C@H](O)CC[C@]4(C)[C@H]3C[C@H](O)[C@]12C [TDCA, taurodeoxycholic acid, reference compound]
GLP-1 secretion after siRNA-mediated knockdown of TGR5 ([1]; NCI-H716, TGR5 siRNA): abolished
